pEC50: −log10 of the molar value. Where two headings read alike, the source gives them in different places.
Tested on: THP1-Dual™ reporter cells
Experiment: THP1-Dual cell reporter assay (IRF-Lucia luciferase reporter)
Type: cell-based, human
Settings: for pEC50: Homo sapiens, THP1-Dual, free compounds, 24 h, Lucia reporter signal, read-out: EC50; for EC50 / EC50 (ng/mL): ADCs: drug linker conjugated to a targeted mAb, 48 h
Procedure, shortened: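 THP1-Dual monocytic cells (~100,000/well) were exposed to compound for 24 h (ADCs 48 h). Secreted IRF-driven Lucia luciferase in the supernatant was quantified by QUANTI-Luc luminescence.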

Row | SMILES | pEC50 | EC50 [ng/mL] | further results
1 | CCn1nc(C)cc1C(=O)Nc1nc2cc(C(N)=O)cc(OC)c2n1C/C=C/Cn1c(NC(=O)c2cc(C)nn2CC)nc2cc(C(N)=O)cc(OCCCN(C)C(=O)[C@@H](N)CCC(=O)OC)c21 [Compound 117] | 7.84 |  | 
2 | CCn1nc(C)cc1C(=O)Nc1nc2cc(C(N)=O)cc(OC)c2n1C/C=C/Cn1c(NC(=O)c2cc(C)nn2CC)nc2cc(C(N)=O)cc(OCCCN(C)C(=O)[C@@H](N)Cc3ccc(OC)cc3)c21 [Compound 118] | 7.63 |  | 
3 | CCn1nc(C)cc1C(=O)Nc1nc2cc(C(N)=O)cc(OC)c2n1C/C=C/Cn1c(NC(=O)c2cc(C)nn2CC)nc2cc(C(N)=O)cc(OCCCN(C)C(=O)[C@@H](N)Cc3cn(C)cn3)c21 [Compound 119] | 7.30 |  | 
4 | CCn1nc(C)cc1C(=O)Nc1nc2cc(C(N)=O)cc(OC)c2n1C/C=C/Cn1c(NC(=O)c2cc(C)nn2CC)nc2cc(C(N)=O)cc(OCCCN(C)C(=O)[C@@H](N)[C@@H](C)OC)c21 [Compound 120] | 8.28 |  | 
5 | CCn1nc(C)cc1C(=O)Nc1nc2cc(C(N)=O)cc(OC)c2n1C/C=C/Cn1c(NC(=O)c2cc(C)nn2CC)nc2cc(C(N)=O)cc(OCCCN(C)C(=O)[C@H](CC(C)C)NC(=O)CCN3C(=O)C=CC3=O)c21 [Compound 121] |  | 3.0 | 
6 | CCn1nc(C)cc1C(=O)Nc1nc2cc(C(N)=O)cc(OC)c2n1C/C=C/Cn1c(NC(=O)c2cc(C)nn2CC)nc2cc(C(N)=O)cc(OCCCN(C)C(=O)[C@H](Cc3ccccc3)NC(=O)CCN3C(=O)C=CC3=O)c21 [Compound 122] |  | 5.6 | 
7 | CCn1nc(C)cc1C(=O)Nc1nc2cc(C(N)=O)cc(OC)c2n1C/C=C/Cn1c(NC(=O)c2cc(C)nn2CC)nc2cc(C(N)=O)cc(OCCCN(C)C(=O)[C@H](CCC(=O)OC)NC(=O)CCN3C(=O)C=CC3=O)c21 [Compound 123] |  | 1.6 | 
8 | CCn1nc(C)cc1C(=O)Nc1nc2cc(C(N)=O)cc(OC)c2n1C/C=C/Cn1c(NC(=O)c2cc(C)nn2CC)nc2cc(C(N)=O)cc(OCCCN(C)C(=O)[C@H](Cc3ccc(OC)cc3)NC(=O)CCN3C(=O)C=CC3=O)c21 [Compound 124] |  | 9.1 | 
9 | CCn1nc(C)cc1C(=O)Nc1nc2cc(C(N)=O)cc(OC)c2n1C/C=C/Cn1c(NC(=O)c2cc(C)nn2CC)nc2cc(C(N)=O)cc(OCCCN(C)C(=O)[C@@H](NC(=O)CCN3C(=O)C=CC3=O)[C@@H](C)OC)c21 [Compound 125] |  | 1.4 | 
10 | CCn1nc(C)cc1C(=O)Nc1nc2cc(C(=O)O)cc(OC)c2n1C/C=C/Cn1c(NC(=O)c2cc(C)nn2CC)nc2cc(C(N)=O)cc(OCCCN(C)C(=O)CCN3C(=O)C=CC3=O)c21 [Compound 126, (E)-1-(4-(5-carbamoyl-7-(3-(3-(2,5-dioxo-2,5-dihydro-1H-pyrrol-1-yl)-N-methylpropanamido)propoxy)-2-(1-ethyl-3-methyl-1H-pyrazole-5-carboxamido)-1H-benzo[d]imidazol-1-yl)but-2-en-1-yl)-2-(1-ethyl-3-methyl-1H-pyrazole-5-carboxamido)-7-methoxy-1H-benzo[d]imidazole-5-carboxylic acid] |  |  | EC50 (ng/mL): >10,000 ng/mL
11 | CCn1nc(C)cc1C(=O)Nc1nc2cc(S(=O)(=O)NC)ccc2n1C/C=C/Cn1c(NC(=O)c2cc(C)nn2CC)nc2cc(C(N)=O)cc(OCCCN(C)C(=O)OC(C)(C)C)c21 [Compound 127, tert-butyl (E)-(3-((5-carbamoyl-2-(1-ethyl-3-methyl-1H-pyrazole-5-carboxamido)-1-(4-(2-(1-ethyl-3-methyl-1H-pyrazole-5-carboxamido)-5-(N-methylsulfamoyl)-1H-benzo[d]imidazol-1-yl)but-2-en-1-yl)-1H-benzo[d]imidazol-7-yl)oxy)propyl)(methyl)carbamate] | 6.52 |  | 
12 | CCn1nc(C)cc1C(=O)Nc1nc2cc(S(=O)(=O)NC)ccc2n1C/C=C/Cn1c(NC(=O)c2cc(C)nn2CC)nc2cc(C(N)=O)cc(OCCCN(C)C(=O)CCN3C(=O)C=CC3=O)c21 [Compound 128, (E)-7-(3-(3-(2,5-dioxo-2,5-dihydro-1H-pyrrol-1-yl)-N-methylpropanamido)propoxy)-2-(1-ethyl-3-methyl-1H-pyrazole-5-carboxamido)-1-(4-(2-(1-ethyl-3-methyl-1H-pyrazole-5-carboxamido)-5-(N-methylsulfamoyl)-1H-benzo[d]imidazol-1-yl)but-2-en-1-yl)-1H-benzo[d]imidazole-5-carboxamide] |  |  | EC50 (ng/mL): >10,000 ng/mL
13 | CCn1nc(C)cc1C(=O)Nc1nc2cc(S(=O)(=O)NC)ccc2n1C/C=C/Cn1c(NC(=O)c2cc(C)nn2CC)nc2cc(C(N)=O)cc(OCCCNC)c21 [Compound 128a] | < 5.00 |  | 
14 | CCn1nc(C)cc1C(=O)Nc1nc2cc(C(=O)OC)cc(OC)c2n1C/C=C/Cn1c(NC(=O)c2cc(C)nn2CC)nc2cc(C(N)=O)cc(OCCCN(C)C(=O)CCN3C(=O)CC(SC[C@H](N)C(=O)O)C3=O)c21 (stereo partly drawn) [Compound 129, S-(1-(3-((3-((5-carbamoyl-2-(1-ethyl-3-methyl-1H-pyrazole-5-carboxamido)-1-((E)-4-(2-(1-ethyl-3-methyl-1H-pyrazole-5-carboxamido)-7-methoxy-5-(methoxycarbonyl)-1H-benzo[d]imidazol-1-yl)but-2-en-1-yl)-1H-benzo[d]imidazol-7-yl)oxy)propyl)(methyl)amino)-3-oxopropyl)-2,5-dioxopyrrolidin-3-yl)-L-cysteine] | 6.08 |  | 
15 | CCn1nc(C)cc1C(=O)Nc1nc2cc(C(=O)O)cc(OC)c2n1C/C=C/Cn1c(NC(=O)c2cc(C)nn2CC)nc2cc(C(N)=O)cc(OCCCN(C)C(=O)CCN3C(=O)CC(SC[C@H](N)C(=O)O)C3=O)c21 (stereo partly drawn) [Compound 130, 1-((E)-4-(7-(3-(3-(3-(((R)-2-amino-2-carboxyethyl)thio)-2,5-dioxopyrrolidin-1-yl)-N-methylpropanamido)propoxy)-5-carbamoyl-2-(1-ethyl-3-methyl-1H-pyrazole-5-carboxamido)-1H-benzo[d]imidazol-1-yl)but-2-en-1-yl)-2-(1-ethyl-3-methyl-1H-pyrazole-5-carboxamido)-7-methoxy-1H-benzo[d]imidazole-5-carboxylicacid] | 5.65 |  | 
16 | CCn1nc(C)cc1C(=O)Nc1nc2cc(C(N)=O)ccc2n1C/C=C/Cn1c(NC(=O)c2cc(C)nn2CC)nc2cc(C(N)=O)cc(OCCCN(C)C(=O)CCCCCN3C(=O)CC(SC[C@H](N)C(=O)O)C3=O)c21 (stereo partly drawn) [Compound 132, S-(1-(6-((3-((5-carbamoyl-1-((E)-4-(5-carbamoyl-2-(1-ethyl-3-methyl-1H-pyrazole-5-carboxamido)-1H-benzo[d]imidazol-1-yl)but-2-en-1-yl)-2-(1-ethyl-3-methyl-1H-pyrazole-5-carboxamido)-1H-benzo[d]imidazol-7-yl)oxy)propyl)(methyl)amino)-6-oxohexyl)-2,5-dioxopyrrolidin-3-yl)-L-cysteine] | 7.43 |  | 
17 | CCn1nc(C)cc1C(=O)Nc1nc2cc(C(N)=O)cc(OC)c2n1C/C=C/Cn1c(NC(=O)c2cc(C)nn2CC)nc2cc(C(N)=O)cc(OCCCN(C(=O)CCN3C(=O)C=CC3=O)C3CC3)c21 [Compound 133, (E)-1-(4-(5-carbamoyl-2-(1-ethyl-3-methyl-1H-pyrazole-5-carboxamido)-7-methoxy-1H-benzo[d]imidazol-1-yl)but-2-en-1-yl)-7-(3-(N-cyclopropyl-3-(2,5-dioxo-2,5-dihydro-1H-pyrrol-1-yl)propanamido)propoxy)-2-(1-ethyl-3-methyl-1H-pyrazole-5-carboxamido)-1H-benzo[d]imidazole-5-carboxamide] |  | 12.2 | 
18 | CCn1nc(C)cc1C(=O)Nc1nc2cc(C(N)=O)cc(OC)c2n1C/C=C/Cn1c(NC(=O)c2cc(C)nn2CC)nc2cc(C(N)=O)cc(OCCC[N+](C)(C)Cc3ccc(O[C@@H]4O[C@H](C(=O)O)[C@@H](O)[C@H](O)[C@H]4O)cc3NC(=O)CCNC(=O)CCN3C(=O)C=CC3=O)c21.O=C([O-])C(F)(F)F [Compound 134] |  | 10.3 | 
19 | CCn1nc(C)cc1C(=O)Nc1nc2cc(S(N)(=O)=O)ccc2n1C/C=C/Cn1c(NC(=O)c2cc(C)nn2CC)nc2cc(C(N)=O)cc(OCCC3CNC3)c21 [Compound 135, (E)-7-(2-(azetidin-3-yl)ethoxy)-2-(1-ethyl-3-methyl-1H-pyrazole-5-carboxamido)-1-(4-(2-(1-ethyl-3-methyl-1H-pyrazole-5-carboxamido)-5-sulfamoyl-1H-benzo[d]imidazol-1-yl)but-2-en-1-yl)-1H-benzo[d]imidazole-5-carboxamide] | 5.70 |  | 
20 | CCn1nc(C)cc1C(=O)Nc1nc2cc(S(N)(=O)=O)ccc2n1C/C=C/Cn1c(NC(=O)c2cc(C)nn2C)nc2cc(C(N)=O)cc(OCCC3CNC3)c21 [Compound 136, (E)-7-(2-(azetidin-3-yl)ethoxy)-2-(1,3-dimethyl-1H-pyrazole-5-carboxamido)-1-(4-(2-(1-ethyl-3-methyl-1H-pyrazole-5-carboxamido)-5-sulfamoyl-1H-benzo[d]imidazol-1-yl)but-2-en-1-yl)-1H-benzo[d]imidazole-5-carboxamide] | < 5.30 |  | 
21 | CCn1nc(C)cc1C(=O)Nc1nc2cc(S(N)(=O)=O)ccc2n1C/C=C/Cn1c(NC(=O)c2cc(C)nn2CC)nc2cc(C(N)=O)cc(OCCCOC3CNC3)c21 [Compound 137, (E)-7-(3-(azetidin-3-yloxy)propoxy)-2-(1-ethyl-3-methyl-1H-pyrazole-5-carboxamido)-1-(4-(2-(1-ethyl-3-methyl-1H-pyrazole-5-carboxamido)-5-sulfamoyl-1H-benzo[d]imidazol-1-yl)but-2-en-1-yl)-1H-benzo[d]imidazole-5-carboxamide] | 5.77 |  | 
22 | CCn1nc(C)cc1C(=O)Nc1nc2cc(S(N)(=O)=O)ccc2n1C/C=C/Cn1c(NC(=O)c2cc(C)nn2C)nc2cc(C(N)=O)cc(OCCCOC3CNC3)c21 [Compound 138] | < 5.30 |  | 
23 | CCn1nc(C)cc1C(=O)Nc1nc2cc(S(N)(=O)=O)ccc2n1C/C=C/Cn1c(NC(=O)c2cc(C)nn2C)nc2cc(C(N)=O)cc(OCCCNC)c21 [Compound 139] | < 5.40 |  | 

— patent US20240123079A1 (Seagen Inc., priority 2021, published 2024)
